Reference: ChEMBL document CHEMBL5620374, “Synthesis and bioevaluation of novel stilbene-based derivatives as tubulin/HDAC dual-target inhibitors with potent antitumor activities in vitro and in vivo” (Eur J Med Chem, 2023)
Activity calls are given as the source filed them. The rule behind the calls is not given here.

Legend:
[1] = tested on: K562; test: Effect on cell cycle in human K562 cells assessed as decrease in cyclin B1 level incubated for 24 hrs by Western blot analysis; type: functional, cell-based; settings: dose 2-8 nM
[2] = tested on: A2780; test: cells; settings: Homo sapiens, A2780, 72 h
Description: Antiproliferative activity against human A2780 cells incubated for 72 hrs by MTT assay

[3] = tested on: H22; test: Antiproliferative activity against mouse H22 cells incubated for 72 hrs by MTT assay; type: functional, cell-based; settings: H22, 72 h
[4] = tested on: K562; test: Inhibition of mitochondrial membrane potential in human K562 cells assessed as red fluorescence intensity at 2 nM incubated for 48 hrs by JC-1 staining based flow cytometry (reference value: 93.36 +/- 0.21 %); type: functional
[5] = tested on: K562; test: Induction of apoptosis in human K562 cells assessed as nuclear fragmentation at 2 to 8 nM incubated for 48 hrs by Hoechst 33342 staining based analysis; type: functional, cell-based; settings: dose 2-8 nM
[6] = tested on: A549; test: cells; settings: Homo sapiens, A549, 72 h
Description: Antiproliferative activity against human A549 cells incubated for 72 hrs by MTT assay

[7] = tested on: B16-F10; test: Antiproliferative activity against mouse B16-F10 cells incubated for 72 hrs by MTT assay; type: functional, cell-based; settings: B16-F10, 72 h
[8] = tested on: K562; test: Induction of cell cycle arrest at G1 phase in human K562 cells at 2 nM incubated for 48 hrs by PI staining based flow cytometry (reference value: 62.08 +/- 0.40 %); type: functional
[9] = biological target: T1, Histone deacetylase 2 (Homo sapiens, UniProt Q92769); test: Inhibition of HDAC2 in human K562 cells assessed as increase in Acetyl-histone H3 level at 0.01 to 1 uM incubated for 24 hrs by Western blot analysis; type: cell-based; settings: dose 0.01-1 µM
[10] = Toxicity in ICR mouse allografted with mouse H22 cells assessed as toxic sign in liver at 10 to 20 mg/kg, iv qd for 17 days consecutively by H and E staining based analysis; type: organism-based; settings: in vivo, dose 10-20 mg/kg, time 17 day
[11] = tested on: K562; test: Inhibition of mitochondrial membrane potential in human K562 cells assessed as green fluorescence intensity at 4 nM incubated for 48 hrs by JC-1 staining based flow cytometry (reference value: 6.63 +/- 0.27 %); type: functional
[12] = tested on: K562; test: Induction of cell cycle arrest at G2 phase in human K562 cells at 4 nM incubated for 48 hrs by PI staining based flow cytometry (Rvb =15.36 +/- 0.46 %); type: functional
[13] = tested on: K562; test: Induction of ROS generation in human K562 cells assessed as DCF-positive cells at 8 nM incubated for 48 hrs by DCF-DA probe based flow cytometry (reference value: 3.87 %); type: functional
[14] = biological target: T2, Histone deacetylase 3 (Homo sapiens, UniProt O15379); test: Inhibition of HDAC3 in human K562 cells assessed as increase in Acetyl-histone H3 level at 0.01 to 1 uM incubated for 24 hrs by Western blot analysis; type: cell-based; settings: dose 0.01-1 µM
[15] = biological target: T1, Histone deacetylase 2; test: Inhibition of HDAC2 derived from human HeLa cell extract using Ac-Leu-Gly-Lys (Ac)-AMC as substrate by fluorescence based assay
[16] = tested on: H22; test: Antitumor activity against mouse H22 cells allografted in ICR mouse assessed as tumor growth inhibition at 20 mg/kg, iv qd for 17 days consecutively relative to control; type: functional; settings: time 17 day, read-out: TGI
[17] = tested on: H22; test: Antitumor activity against mouse H22 cells allografted in ICR mouse assessed as decrease in tumor microvessel density at 20 mg/kg, iv qd for 17 days consecutively by IHC analysis; type: functional, organism-based; settings: time 17.0 day
[18] = tested on: K562; test: Induction of apoptosis in human K562 cells assessed as decrease in Bcl-xL level incubated for 24 hrs by Western blot analysis; type: functional, cell-based; settings: dose 2-8 nM
[19] = Toxicity in ICR mouse allografted with mouse H22 cells assessed as toxic sign in heart at 10 to 20 mg/kg, iv qd for 17 days consecutively by H and E staining based analysis; type: organism-based; settings: in vivo, dose 10-20 mg/kg, time 17 day
[20] = Toxicity in ICR mouse allografted with mouse H22 cells assessed as toxic sign in spleen at 10 to 20 mg/kg, iv qd for 17 days consecutively by H and E staining based analysis; type: organism-based; settings: in vivo, dose 10-20 mg/kg, time 17 day
[21] = tested on: K562; test: Induction of cell cycle arrest at G2 phase in human K562 cells at 2 nM incubated for 48 hrs by PI staining based flow cytometry (Rvb =15.36 +/- 0.46 %); type: functional
[22] = tested on: K562; test: Induction of apoptosis in human K562 cells assessed as viable cells at 2 nM incubated for 48 hrs by Annexin V/PI staining based flow cytometry (reference value: 92.52 +/- 0.34 %); type: functional; settings: read-out: Activity
[23] = tested on: MDA-MB-231; test: Inhibition of cell migration in human MDA-MB-231 cells incubated for 48 hrs by crystal violet staining based transwell assay; type: functional; settings: dose 2-8 nM
[24] = biological target: Tubulin (Homo sapiens) (UniProt P68371+Q9H4B7+P0DPH7+P68366+Q13509+Q71U36+P04350+Q3ZCM7+P07437+P68363+Q9BQE3+Q6PEY2+Q13885+Q9BVA1+Q9BUF5); test: Inhibition of tubulin polymerization in human K562 cells assessed as disruption of microtubule network at 2 to 8 nM by immunofluorescence based analysis; type: cell-based; settings: dose 2-8 nM
[25] = tested on: K562; test: Induction of apoptosis in human K562 cells assessed as increase in Bax level incubated for 24 hrs by Western blot analysis; type: functional, cell-based; settings: dose 2-8 nM
[26] = tested on: K562; test: Induction of cell cycle arrest at S phase in human K562 cells at 8 nM incubated for 48 hrs by PI staining based flow cytometry (reference value: 22.56 +/- 0.47 %); type: functional
[27] = tested on: HUVEC; test: Inhibition of tube formation in HUVEC cells at 8 nM incubated for 6 hrs by inverted microscopy; type: functional, cell-based; settings: Homo sapiens
[28] = biological target: T2, Histone deacetylase 3; test: Inhibition of HDAC3 derived from human HeLa cell extract using Ac-Leu-Gly-Lys (Ac)-AMC as substrate by fluorescence based assay; type: cell-free
[29] = tested on: K562; test: Induction of ROS generation in human K562 cells assessed as DCF-positive cells at 2 nM incubated for 48 hrs by DCF-DA probe based flow cytometry (reference value: 3.87 %); type: functional
[30] = Toxicity in ICR mouse allografted with mouse H22 cells assessed as body weight reduction at 10 to 20 mg/kg, iv qd for 17 days consecutively; type: organism-based; settings: in vivo, dose 10-20 mg/kg, time 17 day
[31] = tested on: K562; test: Inhibition of mitochondrial membrane potential in human K562 cells assessed as green fluorescence intensity at 2 nM incubated for 48 hrs by JC-1 staining based flow cytometry (reference value: 6.63 +/- 0.27 %); type: functional
[32] = tested on: K562; test: Inhibition of mitochondrial membrane potential in human K562 cells assessed as red fluorescence intensity at 4 nM incubated for 48 hrs by JC-1 staining based flow cytometry (reference value: 93.36 +/- 0.21 %); type: functional
[33] = tested on: K562; test: Induction of apoptosis in human K562 cells assessed as early apoptotic cells at 4 nM incubated for 48 hrs by Annexin V/PI staining based flow cytometry (reference value: 1.55 +/- 0.21 %); type: functional
[34] = tested on: K562; test: Induction of ROS generation in human K562 cells assessed as DCF-positive cells at 4 nM incubated for 48 hrs by DCF-DA probe based flow cytometry (reference value: 3.87 %); type: functional
[35] = tested on: K562; test: Induction of apoptosis in human K562 cells assessed as increase in Bad level incubated for 24 hrs by Western blot analysis; type: functional, cell-based; settings: dose 2-8 nM

T1 sequence (Q92769 whole entry): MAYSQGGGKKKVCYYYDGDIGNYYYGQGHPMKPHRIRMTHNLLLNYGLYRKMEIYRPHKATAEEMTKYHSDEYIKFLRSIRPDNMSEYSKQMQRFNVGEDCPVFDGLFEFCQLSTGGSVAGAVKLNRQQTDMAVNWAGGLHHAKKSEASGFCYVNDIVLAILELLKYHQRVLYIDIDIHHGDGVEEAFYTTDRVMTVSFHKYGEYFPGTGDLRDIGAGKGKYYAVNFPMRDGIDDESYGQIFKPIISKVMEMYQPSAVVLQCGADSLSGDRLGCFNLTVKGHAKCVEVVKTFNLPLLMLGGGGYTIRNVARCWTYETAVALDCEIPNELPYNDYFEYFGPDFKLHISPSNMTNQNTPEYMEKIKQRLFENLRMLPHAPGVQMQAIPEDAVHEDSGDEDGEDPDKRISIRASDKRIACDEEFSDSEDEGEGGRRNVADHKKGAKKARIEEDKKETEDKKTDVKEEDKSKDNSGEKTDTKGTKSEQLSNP
T2 sequence (O15379 whole entry): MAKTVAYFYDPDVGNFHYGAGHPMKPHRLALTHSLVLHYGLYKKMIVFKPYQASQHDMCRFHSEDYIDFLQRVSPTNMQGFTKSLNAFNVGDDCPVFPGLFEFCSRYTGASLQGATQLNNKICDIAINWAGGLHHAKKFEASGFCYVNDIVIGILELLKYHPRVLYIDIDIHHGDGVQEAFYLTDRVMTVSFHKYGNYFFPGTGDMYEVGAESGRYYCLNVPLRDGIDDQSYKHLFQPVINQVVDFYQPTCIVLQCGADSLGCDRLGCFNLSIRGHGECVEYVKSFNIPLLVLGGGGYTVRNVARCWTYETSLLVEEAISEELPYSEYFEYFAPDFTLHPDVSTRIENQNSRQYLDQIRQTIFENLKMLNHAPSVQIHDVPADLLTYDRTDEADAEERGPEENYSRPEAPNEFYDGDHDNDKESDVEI

Structure (SMILES): C=C(c1ccc(OC)c(OC(F)C(=O)NO)c1)c1cc(C)nc2ccccc12 (stereo not given)
- Activity [1]: Dose-Dependent Effect
- IC50 [2]: 5 nM
- IC50 [3]: 8 nM
- Flu intensity [4]: 82.36%
- Activity [5]: Active
- IC50 [6]: 17 nM
- IC50 [7]: 5 nM
- Activity [8]: 56.87%
- inhibition [9]: Active
- Activity [10]: Non-Toxic
- Flu intensity [11]: 31.75%
- Activity [12]: 23.38%
- Activity [13]: 42.67%
- inhibition [14]: Active
- IC50 [15]: 591 nM
- inhibition in vivo at 20 mg/kg [16]: 73.1%
- Activity [17]: Active
- Activity [18]: Dose-Dependent Effect
- Activity [19]: Non-Toxic
- Activity [20]: Non-Toxic
- Activity [21]: 20.48%
- viability at 0.002 µM [22]: 81.2%
- inhibition [23]: Dose-Dependent Effect
- inhibition [24]: Active
- Activity [25]: Dose-Dependent Effect
- Activity [26]: 30.41%
- inhibition [27]: Active
- IC50 [28]: 3550 nM
- Activity [29]: 16.44%
- Activity [30]: Non-Toxic
- Flu intensity [31]: 17.63%
- Flu intensity [32]: 68.24%
- Activity [33]: 24.51%
- Activity [34]: 29.72%
- Activity [35]: Dose-Dependent Effect
